Results from publication PMC5384001 (Scientific Reports, 2017).
Numbering of substitutions follows the chain as printed. Where “and” joins values, the source holds several entries; their conditions need not be identical. Equal values may be shown once.

Columns and labels:
GluD2-Lc-(HS1)GluN1 = biological target: T1, GluD2-Lc-(HS1)GluN1 (Rattus norvegicus, UniProt Q63226, A654T/D542Y/S544G/Y543Q); test: Two-electrode voltage clamp in Xenopus oocytes, inhibition of spontaneous currents; format: cell-based; details: fraction of spontaneous current inhibited by saturating D-serine
T1 construct: the function of full-length receptors as well, we introduced them into the GluD2 lurcher mutant (GluD2-Lc); expressed in transfected cells; host or cells: Xenopus laevis oocytes injected with cRNA
T1 sequence (Q63226 24-1007 D542Y/Y543Q/S544G/A654T): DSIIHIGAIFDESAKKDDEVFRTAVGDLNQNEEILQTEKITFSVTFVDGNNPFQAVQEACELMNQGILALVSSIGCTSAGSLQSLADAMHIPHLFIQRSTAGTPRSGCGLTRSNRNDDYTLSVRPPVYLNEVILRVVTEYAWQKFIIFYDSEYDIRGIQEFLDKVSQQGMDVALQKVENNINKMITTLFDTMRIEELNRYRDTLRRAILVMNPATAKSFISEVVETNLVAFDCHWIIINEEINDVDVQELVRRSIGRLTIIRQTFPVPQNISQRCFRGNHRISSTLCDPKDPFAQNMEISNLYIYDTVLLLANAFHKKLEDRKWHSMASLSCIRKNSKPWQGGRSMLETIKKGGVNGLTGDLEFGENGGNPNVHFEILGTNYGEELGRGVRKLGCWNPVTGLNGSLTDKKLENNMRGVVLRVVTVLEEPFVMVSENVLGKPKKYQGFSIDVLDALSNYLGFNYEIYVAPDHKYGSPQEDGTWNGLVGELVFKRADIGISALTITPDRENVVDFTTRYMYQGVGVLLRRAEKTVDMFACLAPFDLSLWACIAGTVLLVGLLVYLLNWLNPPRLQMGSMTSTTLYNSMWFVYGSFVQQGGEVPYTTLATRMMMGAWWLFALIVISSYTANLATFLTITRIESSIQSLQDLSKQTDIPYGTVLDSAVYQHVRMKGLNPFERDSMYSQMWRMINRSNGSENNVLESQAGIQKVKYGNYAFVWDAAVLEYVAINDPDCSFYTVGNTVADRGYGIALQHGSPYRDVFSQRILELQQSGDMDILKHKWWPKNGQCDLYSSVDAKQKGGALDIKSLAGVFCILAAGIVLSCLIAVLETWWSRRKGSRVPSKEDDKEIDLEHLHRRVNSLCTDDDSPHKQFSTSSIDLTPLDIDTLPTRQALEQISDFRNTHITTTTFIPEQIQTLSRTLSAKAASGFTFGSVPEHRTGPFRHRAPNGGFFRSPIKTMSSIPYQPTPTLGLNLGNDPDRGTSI
From the text: (§1) All cDNAs for expression in Xenopus oocytes were cloned into the vector pSGEM[30]. Point mutants of GluD2-Lc were constructed by overlap extension PCR with mutagenic oligonucleotide primers. The GluD2-Lc-(H)GluN1 chimera was constructed by transferring the S1- and S2-encoding sequences from GluD2-LBD-(H)GluN1 to GluD2-Lc via overlap extension PCR using tail primers. The S1 and S2 sequences were transferred separately, yielding GluD2-Lc-(HS1)GluN1 and GluD2-Lc-(HS2)GluN1 constructs. GluD2-Lc-(H)GluN1 was then produced from these by another overlap extension PCR. Complementary RNA (cRNA) for injection into oocytes was synthesised from 1 μg of linearised template DNA with the mMESSAGE mMACHINE in vitro transcription kit (Ambion, Austin, TX, USA).
(§2) Oocytes were obtained by surgically removing parts of the ovaries from Xenopus laevis (Nasco, Fort Atkinson, WI, USA) anaesthetised with 1.5 g/L 3-aminobenzoic acid ethylester (Sigma, Taufkirchen, Germany). […] Oocytes were injected with 11 ng cRNA (10 ng of each cRNA for co-expression of GluN1 and GluN2A) using a nanoliter injector (WPI, Sarasota, FL, USA). Four days after cRNA injection, current responses were recorded under voltage clamp at –70 mV with a Turbo Tec-10CD amplifier (npi electronic, Tamm, Germany) controlled by Patchmaster software (HEKA, Lambrecht, Germany). Currents were filtered with a 20 Hz low-pass filter and then digitised with a sampling rate of 50 Hz. Recording electrodes were pulled from borosilicate glass (Hilgenberg, Malsfeld, Germany) with an L/M-3P-A vertical pipette puller (List-Medical), filled with 3 M KCl, and had resistances of 0.5–5 MΩ (voltage electrode) or 0.5–1.5 MΩ (current electrode). Recordings were performed in a 50 μL chamber under constant superfusion with extracellular solution at a flow rate of 3–5 mL/min. […] Finally, Ba-NFR and then NMDGR were applied again to check for reversibility.

GluD2-Lc(Y543Q) = biological target: T2, GluD2-Lc(Y543Q) (Rattus norvegicus, UniProt Q63226, A654T/Y543Q); test: as above; format: cell-based; details: fraction of spontaneous current inhibited by saturating D-serine
T2 construct: the function of full-length receptors as well, we introduced them into the GluD2 lurcher mutant (GluD2-Lc); expressed in transfected cells; host or cells: Xenopus laevis oocytes injected with cRNA
T2 sequence (Q63226 24-1007 Y543Q/A654T): T1 sequence (Q63226 24-1007 D542Y/Y543Q/S544G/A654T) with Y519D, G521S
From the text: as §1, §2

N[C@H](CO)C(=O)O [D-serine]
D-serine efficacy Mean ± SEM (GluD2-Lc-(HS1)GluN1): 29% and 29.1 ± 1.1% | D-serine efficacy Mean ± SEM (GluD2-Lc(Y543Q)): 36% and 36.2 ± 0.6%
